One molecule from patent publication US8119998B2, “Methods and systems for in situ physicochemical property testing” (Pion, Inc., priority 2008, dated 2012) can be followed below.

≈ marks a conversion by molar mass, not a printed value.

This data set is described as follows: Miniaturized rotating disk dissolution and solubility of pressed pellet, biexponential fit. The following applies: pressed pellet 3.9 mm, five replicate profiles, 180 selected points, FIG. 12. The data set is classed as physicochemical. On the procedure:
This example is based on the dissolution and solubility characteristics of the model drug carbamazepine, with data collected on a prototype instrument, utilizing a miniaturized rotating disk of pressed compound held as a pellet in a small stainless steel die. The average diameter of the pellets of material was measured to be 3.9 mm, corresponding to a nominal area of 0.12 cm^2, and the minimal amount of compound needed to make such pellets was about 5 mg, although more may be used. In this example, the solution volume was 15 mL, larger than the preferred volume of 3 mL. Over 1100 concentration measurements were acquired, in five replicate dissolution profiles. […] The powder “burst” would be associated with a high surface area, but would be limited to a small quantity of material: [formula] […] 2 with respect to time, evaluated at t=to, in the units of μg/min (with PABL in cm/s units), is DR^max=(Cpowder·Apowder+[…]·60 [3] The factor of 60 accounts for the conversion of ABL permeability into cm/min units. Intrinsic dissolution rate (IDR) is calculated as IDR=DR^max/Aeff, where Aeff is the effective area of the solid phase in contact with bulk solution. The effective surface area is defined as Aeff=δApowder+(1-δ)[…], where δ=[…]). The IDR is the maximum flux of material entering the solution phase through the interface solid-liquid interface (often evaluated at time near zero). […]

`NC(=O)N1c2ccccc2C=Cc2ccccc21` [carbamazepine]: the “IDR (intrinsic dissolution rate)” value (nominal area 0.12 cm^2, 15 mL) worked out at 25±1 μg/cm^2·min. For the same molecule, the solubility (thermodynamic from solid, 15 mL, read-out: S (solubility)) was determined as 225 ± 6 µg/mL (≈ 952 µM).

As usually defined, the solubility is how much of the substance goes into solution per volume.
